Patent US4761419A, “6-(((substituted)quinolinyl)ethyl)-and ethenyl)tetrahydro-4-hydroxypyran-2-one inhibitors of cholesterol biosynthesis” (Warner-Lambert Company, priority 1987, dated 1988)

Tested on: cholesterol biosynthesis (sterol synthesis, rat liver homogenate)
Experiment: CSI screen: incorporation of 14C-acetate into nonsaponifiable lipid by rat liver homogenate (inhibition of cholesterol biosynthesis)
Assay type: biochemical
Settings: rat liver homogenate from cholestyramine-fed rats; inhibition of sterol synthesis over a one-hour period
Method: The ability of compounds of the present invention to inhibit the biosynthesis of cholesterol was measured by a method (designated CSI screen) which utilizes the procedure described by R. E. Dugan et al, Archiv. Biochem. Biophys., (1972), 152, 21-27. In this method, the level of HMG-CoA enzyme activity in standard laboratory rats is increased by feeding the rats a chow diet containing 5cholestyramine for four days, after which the rats are sacrificed.
The rat livers are homogenized, and the incorporation of 14C-acetate into nonsaponifiable lipid by the rat liver homogenate is measured. The micromolar concentration of compound required for 50inhibition of sterol synthesis over a one-hour period is measured, and expressed as an IC50 value.

| Structure (SMILES) | IC50 [µM] |
| --- | --- |
| Cc1nc2ccc(Cl)cc2c(-c2ccc(F)cc2)c1/C=C/[C@@H]1C[C@@H](O)CC(=O)O1 (relative stereo) [CHCH, 4-Fluorophenyl, CH3, H, Cl, H, H, [4α,6β(E)]-6[-2-[6-Chloro-4-(4-fluorophenyl)-2-methyl-3-quinolinyl]ethenyl]-tetrahydro-4-hydroxy-2H-pyran-2-one] | 0.35 |
| CC(C)c1nc2ccc(Cl)cc2c(-c2ccc(F)cc2)c1/C=C/[C@@H]1C[C@@H](O)CC(=O)O1 (relative stereo) [[4α,6β(E)]6-[2-[6-Chloro-4-(4-fluorophenyl)-2-(1-methylethyl)-3-quinolinyl]ethenyl]tetrahydro-4-hydroxy-2H-pyran-2-one] | 0.032 |
